Reference: patent US20230111310A1, “CARBOXYLIC ACID DERIVATIVE-SUBSTITUTED IMINO ARYL COMPOUND, PREPARATION METHOD THEREFOR, HERBICIDAL COMPOSITION AND USE THEREOF” (Qingdao Kingagroot Chemical Compound Co., Ltd., priority 2020, published 2023)

How the values were obtained:
Assay type in all cases: in vivo
[1] = test system: Soybeans; test: Pre-emergence stage, crop selectivity; conditions: 30 g/ha, 4 weeks
How it was run: (§1)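 Pots were kept in the greenhouse for 4 weeks and then rated for growth control on activity-level criteria. Spraying took place immediately after sowing at application rates of 500 to 7.5 g/ha, using an acetone/tween 80 formulation diluted with water, on seeds under 0.5-2 cm of soil.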

[2] = test system: Peanut; test: Pre-emergence stage, crop selectivity; conditions: 30 g/ha, 4 weeks
How it was run: as §1

[3] = test system: corn; test: Pre-emergence stage, crop selectivity; conditions: 30 g/ha, 4 weeks
How it was run: as §1

[4] = test system: cotton; test: Pre-emergence stage, crop selectivity; conditions: 30 g/ha, 4 weeks
How it was run: as §1

[5] = test system: Echinochloa crusgalli; test: Weeding effect in post-emergence stage; conditions: Dose 15 g/ha; level of fresh weight growth control rate
How it was run: (§2)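 Compound, dissolved in acetone and diluted in water with Tween 80 plus methyl oleate EC (1.5 liter/ha), is sprayed onto 2-3 leaf potted plants. Rates span 7.5–500 g/ha. After 3 weeks of greenhouse culture, weeding effect is counted as the mean of triplicates.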

[6] = test system: Capsella bursa-pastoris; test: Weeding effect in pre-emergence stage; conditions: 30 g/ha, 4 weeks
How it was run: as §1

[7] = test system: Veronica didyma Tenore; test: Weeding effect in pre-emergence stage; conditions: 30 g/ha, 4 weeks
How it was run: as §1

[8] = test system: Setaria viridis; test: Weeding effect in pre-emergence stage; conditions: 30 g/ha, 4 weeks
How it was run: as §1

[9] = test system: Abutilon theophrasti; test: Weeding effect in pre-emergence stage; conditions: 30 g/ha, 4 weeks
How it was run: as §1

[10] = test system: Descurainia sophia; test: Weeding effect in pre-emergence stage; conditions: 30 g/ha, 4 weeks
How it was run: as §1

[11] = test system: Amaranthus retroflexus; test: Weeding effect in pre-emergence stage; conditions: 30 g/ha, 4 weeks
How it was run: as §1

[12] = test system: Alopecurus japonicus; test: Weeding effect in post-emergence stage; conditions: Dose 15 g/ha; level of fresh weight growth control rate
How it was run: as §2

[13] = test system: Setaria viridis; test: Weeding effect in post-emergence stage; conditions: Dose 15 g/ha; level of fresh weight growth control rate
How it was run: as §2

[14] = test system: Eleusine indica; test: Weeding effect in post-emergence stage; conditions: Dose 15 g/ha; level of fresh weight growth control rate
How it was run: as §2

[15] = test system: Digitaria sanguinalis; test: Weeding effect in post-emergence stage; conditions: Dose 15 g/ha; level of fresh weight growth control rate
How it was run: as §2

[16] = test system: Abutilon theophrasti; test: Weeding effect in post-emergence stage; conditions: Dose 15 g/ha; level of fresh weight growth control rate
How it was run: as §2

Row | SMILES | plant damage level Soybeans [1] | plant damage level Peanut [2] | plant damage level Corn [3] | plant damage level Cotton [4] | Weeding effect in post-emergence stage, Echinochloa crusgalli [5] | activity level (growth control rate) Capsella bursa-pastoris [6] | activity level (growth control rate) Veronica didyma Tenore [7] | activity level (growth control rate) Setaria viridis [8] | activity level (growth control rate) Abutilon theophrasti [9] | activity level (growth control rate) Descurainia sophia [10] | activity level (growth control rate) Amaranthus retroflexus [11] | Weeding effect in post-emergence stage, Alopecurus japonicus [12] | Weeding effect in post-emergence stage, Setaria viridis [13] | Weeding effect in post-emergence stage, Eleusine indica [14] | Weeding effect in post-emergence stage, Digitaria sanguinalis [15] | Weeding effect in post-emergence stage, Abutilon theophrasti [16]
1 | CC/C(C)=N/OC(=O)[C@@H](C)O/N=C/c1cc(-n2c(=O)cc(C(F)(F)F)n(C)c2=O)c(F)cc1Cl [249(R)] | 0 (Level 0: growth control rate is less than 5%) | 0 (Level 0: growth control rate is less than 5%) | 0 (Level 0: growth control rate is less than 5%) | 0 (Level 0: growth control rate is less than 5%) | 5 (Level 5: growth control rate is above 85%) | 5 (Level 5: growth control rate is above 85%) | 5 (Level 5: growth control rate is above 85%) | 5 (Level 5: growth control rate is above 85%) | 5 (Level 5: growth control rate is above 85%) | 5 (Level 5: growth control rate is above 85%) | 5 (Level 5: growth control rate is above 85%) | 5 (Level 5: growth control rate is above 85%) | 5 (Level 5: growth control rate is above 85%) | 5 (Level 5: growth control rate is above 85%) | 5 (Level 5: growth control rate is above 85%) | 5 (Level 5: growth control rate is above 85%)
2 | COC/C(C)=N/OC(=O)[C@@H](C)O/N=C/c1cc(-n2c(=O)cc(C(F)(F)F)n(C)c2=O)c(F)cc1Cl [253(R)] | 0 (Level 0: growth control rate is less than 5%) | 0 (Level 0: growth control rate is less than 5%) | 0 (Level 0: growth control rate is less than 5%) | 0 (Level 0: growth control rate is less than 5%) | 5 (Level 5: growth control rate is above 85%) | 5 (Level 5: growth control rate is above 85%) | 5 (Level 5: growth control rate is above 85%) | 5 (Level 5: growth control rate is above 85%) | 5 (Level 5: growth control rate is above 85%) | 5 (Level 5: growth control rate is above 85%) | 5 (Level 5: growth control rate is above 85%) | 5 (Level 5: growth control rate is above 85%) | 5 (Level 5: growth control rate is above 85%) | 5 (Level 5: growth control rate is above 85%) | 5 (Level 5: growth control rate is above 85%) | 5 (Level 5: growth control rate is above 85%)
3 | C[C@@H](O/N=C/c1cc(-n2c(=O)cc(C(F)(F)F)n(C)c2=O)c(F)cc1Cl)C(=O)ON=C1CCCC1 [258(R)] | 0 (Level 0: growth control rate is less than 5%) | 0 (Level 0: growth control rate is less than 5%) | 0 (Level 0: growth control rate is less than 5%) | 0 (Level 0: growth control rate is less than 5%) | 5 (Level 5: growth control rate is above 85%) | 5 (Level 5: growth control rate is above 85%) | 5 (Level 5: growth control rate is above 85%) | 5 (Level 5: growth control rate is above 85%) | 5 (Level 5: growth control rate is above 85%) | 5 (Level 5: growth control rate is above 85%) | 5 (Level 5: growth control rate is above 85%) | 4 (Level 4: growth control rate is greater than or equal to 60% and less than 85%) | 5 (Level 5: growth control rate is above 85%) | 5 (Level 5: growth control rate is above 85%) | 5 (Level 5: growth control rate is above 85%) | 5 (Level 5: growth control rate is above 85%)
4 | C[C@@H](O/N=C/c1cc(-n2c(=O)cc(C(F)(F)F)n(C)c2=O)c(F)cc1Cl)C(=O)OCC1CCCO1 (stereo partly drawn) [264(R)] | 0 (Level 0: growth control rate is less than 5%) | 0 (Level 0: growth control rate is less than 5%) | 0 (Level 0: growth control rate is less than 5%) | 0 (Level 0: growth control rate is less than 5%) | 5 (Level 5: growth control rate is above 85%) | 5 (Level 5: growth control rate is above 85%) | 5 (Level 5: growth control rate is above 85%) | 5 (Level 5: growth control rate is above 85%) | 5 (Level 5: growth control rate is above 85%) | 5 (Level 5: growth control rate is above 85%) | 5 (Level 5: growth control rate is above 85%) | 5 (Level 5: growth control rate is above 85%) | 5 (Level 5: growth control rate is above 85%) | 5 (Level 5: growth control rate is above 85%) | 5 (Level 5: growth control rate is above 85%) | 5 (Level 5: growth control rate is above 85%)
5 | C[C@@H](O/N=C/c1cc(-n2c(=O)cc(C(F)(F)F)n(C)c2=O)c(F)cc1Cl)C(=O)OCc1ccccc1 [283(R)] | 0 (Level 0: growth control rate is less than 5%) | 0 (Level 0: growth control rate is less than 5%) | 0 (Level 0: growth control rate is less than 5%) | 0 (Level 0: growth control rate is less than 5%) | 5 (Level 5: growth control rate is above 85%) | 5 (Level 5: growth control rate is above 85%) | 5 (Level 5: growth control rate is above 85%) | 5 (Level 5: growth control rate is above 85%) | 5 (Level 5: growth control rate is above 85%) | 5 (Level 5: growth control rate is above 85%) | 5 (Level 5: growth control rate is above 85%) | 5 (Level 5: growth control rate is above 85%) | 5 (Level 5: growth control rate is above 85%) | 5 (Level 5: growth control rate is above 85%) | 5 (Level 5: growth control rate is above 85%) | 5 (Level 5: growth control rate is above 85%)
6 | C[C@@H](O/N=C/c1cc(-n2c(=O)cc(C(F)(F)F)n(C)c2=O)c(F)cc1Cl)C(=O)OCc1ccccn1 [301(R)] | 0 (Level 0: growth control rate is less than 5%) | 0 (Level 0: growth control rate is less than 5%) | 0 (Level 0: growth control rate is less than 5%) | 0 (Level 0: growth control rate is less than 5%) | 5 (Level 5: growth control rate is above 85%) | 5 (Level 5: growth control rate is above 85%) | 5 (Level 5: growth control rate is above 85%) | 5 (Level 5: growth control rate is above 85%) | 5 (Level 5: growth control rate is above 85%) | 5 (Level 5: growth control rate is above 85%) | 5 (Level 5: growth control rate is above 85%) | 5 (Level 5: growth control rate is above 85%) | 5 (Level 5: growth control rate is above 85%) | 5 (Level 5: growth control rate is above 85%) | 5 (Level 5: growth control rate is above 85%) | 5 (Level 5: growth control rate is above 85%)
